Laboratory results published in the kinase profiling compilation of Christmann-Franck et al. (2016).

Columns and labels:
Assay in all cases: radiometric filter-binding kinase assay
[1] = test system: AKT1 (human), P31749 [S473D]
[2] = molecular target: AURKA (human) (UniProt O14965)
[3] = molecular target: BRSK2 (human) (UniProt Q8IWQ3)
[4] = molecular target: CHEK2 (human) (UniProt O96017)
[5] = molecular target: CaMK1 (human) (UniProt Q14012)
[6] = molecular target: DYRK1A (human) (UniProt Q13627)
[7] = molecular target: DYRK2 (human) (UniProt Q92630)
[8] = molecular target: EPHB2 (human) (UniProt P29323)
[9] = molecular target: EPHB3 (human) (UniProt P54753)
[10] = molecular target: ERBB4 (human) (UniProt Q15303)
[11] = molecular target: HIPK2 (human) (UniProt Q9H2X6)
[12] = molecular target: IKBKE (human) (UniProt Q14164)
[13] = molecular target: MAP2K6 (human) (UniProt P52564)
[14] = molecular target: MAP3K11 (human) (UniProt Q16584)
[15] = molecular target: MAPK1 (human) (UniProt P28482)
[16] = molecular target: MAPK10 (human) (UniProt P53779)
[17] = molecular target: MAPK12 (human) (UniProt P53778)
[18] = molecular target: MAPK13 (human) (UniProt O15264)
[19] = molecular target: MAPK3 (human) (UniProt P27361)
[20] = molecular target: MAPK8 (human) (UniProt P45983)
[21] = molecular target: MAPKAPK3 (human) (UniProt Q16644)
[22] = molecular target: MARK2 (human) (UniProt Q7KZI7)
[23] = molecular target: MKNK1 (human) (UniProt Q9BUB5)
[24] = molecular target: MST4 (human) (UniProt Q9P289)
[25] = molecular target: NEK2 (human) (UniProt P51955)
[26] = molecular target: NUAK1 (human) (UniProt O60285)
[27] = molecular target: PAK4 (human) (UniProt O96013)
[28] = molecular target: PAK7 (human) (UniProt Q9P286)
[29] = molecular target: PLK1 (human) (UniProt P53350)
[30] = test system: PRKAA1 or PRKAA2 (rat); settings: accession and sequence are those of the human protein
[31] = molecular target: PRKACA (human) (UniProt P17612)
[32] = molecular target: PRKCA (human) (UniProt P17252)
[33] = molecular target: RPS6KA1 KD1 KD2 (human) (UniProt Q15418)
[34] = test system: SGK1 (human), O00141 [S422D]
[35] = molecular target: SYK (human) (UniProt P43405)

Sequence of DYRK2 (human) (Q92630 whole entry, looked up): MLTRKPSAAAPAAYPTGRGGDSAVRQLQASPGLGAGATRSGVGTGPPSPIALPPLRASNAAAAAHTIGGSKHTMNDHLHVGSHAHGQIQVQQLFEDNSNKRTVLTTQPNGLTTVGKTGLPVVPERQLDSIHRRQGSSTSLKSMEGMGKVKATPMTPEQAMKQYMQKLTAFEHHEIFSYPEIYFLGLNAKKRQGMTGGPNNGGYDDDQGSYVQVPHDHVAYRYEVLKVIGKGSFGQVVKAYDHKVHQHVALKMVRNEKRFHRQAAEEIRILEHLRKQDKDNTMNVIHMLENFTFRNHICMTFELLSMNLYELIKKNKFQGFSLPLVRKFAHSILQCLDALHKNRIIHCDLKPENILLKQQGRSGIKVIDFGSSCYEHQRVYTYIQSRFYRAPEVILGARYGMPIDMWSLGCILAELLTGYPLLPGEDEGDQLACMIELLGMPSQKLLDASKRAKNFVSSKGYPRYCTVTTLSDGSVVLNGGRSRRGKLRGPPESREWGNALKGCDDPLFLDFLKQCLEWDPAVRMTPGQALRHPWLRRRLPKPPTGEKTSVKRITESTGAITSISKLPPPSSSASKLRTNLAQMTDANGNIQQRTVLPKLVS
Sequence of HIPK2 (human) (Q9H2X6 whole entry, looked up): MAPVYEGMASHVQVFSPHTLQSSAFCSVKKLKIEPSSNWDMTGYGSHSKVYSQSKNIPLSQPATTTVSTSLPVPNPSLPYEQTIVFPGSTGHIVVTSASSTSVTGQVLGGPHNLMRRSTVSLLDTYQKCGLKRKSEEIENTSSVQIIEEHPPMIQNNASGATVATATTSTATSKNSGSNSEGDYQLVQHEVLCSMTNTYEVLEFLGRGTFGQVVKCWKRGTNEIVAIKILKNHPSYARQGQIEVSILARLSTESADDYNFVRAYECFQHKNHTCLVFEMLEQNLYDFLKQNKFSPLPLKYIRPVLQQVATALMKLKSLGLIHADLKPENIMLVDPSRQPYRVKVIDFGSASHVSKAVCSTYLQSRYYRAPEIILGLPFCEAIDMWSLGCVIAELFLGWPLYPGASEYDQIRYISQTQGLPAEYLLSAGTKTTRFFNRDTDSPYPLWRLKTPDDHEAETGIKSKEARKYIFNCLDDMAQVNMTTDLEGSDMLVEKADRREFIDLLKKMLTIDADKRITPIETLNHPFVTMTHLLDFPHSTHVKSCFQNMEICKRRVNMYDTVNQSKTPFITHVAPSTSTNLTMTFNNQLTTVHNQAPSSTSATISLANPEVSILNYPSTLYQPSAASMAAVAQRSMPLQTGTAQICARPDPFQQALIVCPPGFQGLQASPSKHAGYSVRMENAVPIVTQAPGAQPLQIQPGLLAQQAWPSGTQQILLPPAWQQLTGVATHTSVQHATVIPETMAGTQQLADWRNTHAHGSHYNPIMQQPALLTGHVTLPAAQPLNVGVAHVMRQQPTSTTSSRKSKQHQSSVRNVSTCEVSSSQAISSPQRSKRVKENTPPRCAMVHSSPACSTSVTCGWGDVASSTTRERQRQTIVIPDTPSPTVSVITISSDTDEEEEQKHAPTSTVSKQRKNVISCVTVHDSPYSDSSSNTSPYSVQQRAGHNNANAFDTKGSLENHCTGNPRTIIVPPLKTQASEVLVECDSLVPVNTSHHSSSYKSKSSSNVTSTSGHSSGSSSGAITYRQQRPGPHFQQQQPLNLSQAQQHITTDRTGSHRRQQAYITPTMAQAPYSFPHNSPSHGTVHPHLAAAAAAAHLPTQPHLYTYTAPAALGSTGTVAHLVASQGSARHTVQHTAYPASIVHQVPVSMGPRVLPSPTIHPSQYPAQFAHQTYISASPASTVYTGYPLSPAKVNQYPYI
Sequence of MAPK1 (human) (P28482 whole entry, looked up): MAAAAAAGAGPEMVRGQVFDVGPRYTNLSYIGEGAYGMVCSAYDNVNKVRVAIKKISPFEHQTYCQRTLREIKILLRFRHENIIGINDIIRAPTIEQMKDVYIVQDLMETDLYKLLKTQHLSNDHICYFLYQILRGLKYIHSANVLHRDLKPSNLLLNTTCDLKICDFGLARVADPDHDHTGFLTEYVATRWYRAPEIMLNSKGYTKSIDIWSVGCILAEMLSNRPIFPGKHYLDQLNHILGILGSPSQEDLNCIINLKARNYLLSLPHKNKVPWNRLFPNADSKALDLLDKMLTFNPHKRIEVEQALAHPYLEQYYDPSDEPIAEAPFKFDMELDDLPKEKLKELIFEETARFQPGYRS
Sequence of EPHB2 (human) (P29323 whole entry, looked up): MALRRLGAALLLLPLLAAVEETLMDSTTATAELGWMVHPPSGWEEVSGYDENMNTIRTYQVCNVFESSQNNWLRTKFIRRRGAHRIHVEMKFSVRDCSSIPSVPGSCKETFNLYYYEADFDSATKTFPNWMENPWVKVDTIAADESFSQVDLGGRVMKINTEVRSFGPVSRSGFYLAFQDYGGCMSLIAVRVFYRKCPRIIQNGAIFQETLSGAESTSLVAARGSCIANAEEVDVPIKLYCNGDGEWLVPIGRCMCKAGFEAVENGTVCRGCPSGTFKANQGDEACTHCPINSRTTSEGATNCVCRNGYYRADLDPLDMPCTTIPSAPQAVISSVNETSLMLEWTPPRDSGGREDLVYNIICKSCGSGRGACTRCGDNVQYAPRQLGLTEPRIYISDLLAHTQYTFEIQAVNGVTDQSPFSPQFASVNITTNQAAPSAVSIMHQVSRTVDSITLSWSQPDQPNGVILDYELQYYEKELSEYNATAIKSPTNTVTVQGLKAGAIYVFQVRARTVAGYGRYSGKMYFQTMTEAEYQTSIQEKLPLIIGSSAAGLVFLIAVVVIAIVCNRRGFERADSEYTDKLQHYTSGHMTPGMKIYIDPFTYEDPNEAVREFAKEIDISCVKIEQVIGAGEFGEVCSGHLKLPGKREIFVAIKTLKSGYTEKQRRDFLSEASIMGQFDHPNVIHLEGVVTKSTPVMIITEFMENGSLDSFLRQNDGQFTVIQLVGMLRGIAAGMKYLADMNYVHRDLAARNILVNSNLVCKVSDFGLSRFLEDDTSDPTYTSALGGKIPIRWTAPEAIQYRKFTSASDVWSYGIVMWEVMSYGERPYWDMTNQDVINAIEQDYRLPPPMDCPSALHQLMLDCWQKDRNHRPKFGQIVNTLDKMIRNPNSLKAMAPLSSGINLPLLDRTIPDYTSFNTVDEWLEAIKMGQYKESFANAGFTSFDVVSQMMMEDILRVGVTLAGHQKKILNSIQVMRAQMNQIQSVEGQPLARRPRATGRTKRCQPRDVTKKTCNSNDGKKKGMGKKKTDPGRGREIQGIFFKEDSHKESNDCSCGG
Sequence of CHEK2 (human) (O96017 whole entry, looked up): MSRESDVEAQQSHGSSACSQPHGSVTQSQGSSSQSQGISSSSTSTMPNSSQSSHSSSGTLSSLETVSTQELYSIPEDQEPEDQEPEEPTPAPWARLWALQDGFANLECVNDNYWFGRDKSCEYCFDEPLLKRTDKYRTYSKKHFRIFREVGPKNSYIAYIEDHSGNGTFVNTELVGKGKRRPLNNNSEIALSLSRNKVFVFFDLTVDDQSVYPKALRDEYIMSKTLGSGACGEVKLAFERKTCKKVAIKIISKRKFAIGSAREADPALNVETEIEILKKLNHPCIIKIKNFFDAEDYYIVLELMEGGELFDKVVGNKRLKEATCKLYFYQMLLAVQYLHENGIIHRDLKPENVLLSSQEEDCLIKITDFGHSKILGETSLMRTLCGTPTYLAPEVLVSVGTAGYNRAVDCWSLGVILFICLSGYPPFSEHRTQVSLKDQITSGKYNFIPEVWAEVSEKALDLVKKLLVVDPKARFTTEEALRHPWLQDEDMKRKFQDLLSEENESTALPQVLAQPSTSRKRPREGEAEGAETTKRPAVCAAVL
Sequence of PAK4 (human) (O96013 whole entry, looked up): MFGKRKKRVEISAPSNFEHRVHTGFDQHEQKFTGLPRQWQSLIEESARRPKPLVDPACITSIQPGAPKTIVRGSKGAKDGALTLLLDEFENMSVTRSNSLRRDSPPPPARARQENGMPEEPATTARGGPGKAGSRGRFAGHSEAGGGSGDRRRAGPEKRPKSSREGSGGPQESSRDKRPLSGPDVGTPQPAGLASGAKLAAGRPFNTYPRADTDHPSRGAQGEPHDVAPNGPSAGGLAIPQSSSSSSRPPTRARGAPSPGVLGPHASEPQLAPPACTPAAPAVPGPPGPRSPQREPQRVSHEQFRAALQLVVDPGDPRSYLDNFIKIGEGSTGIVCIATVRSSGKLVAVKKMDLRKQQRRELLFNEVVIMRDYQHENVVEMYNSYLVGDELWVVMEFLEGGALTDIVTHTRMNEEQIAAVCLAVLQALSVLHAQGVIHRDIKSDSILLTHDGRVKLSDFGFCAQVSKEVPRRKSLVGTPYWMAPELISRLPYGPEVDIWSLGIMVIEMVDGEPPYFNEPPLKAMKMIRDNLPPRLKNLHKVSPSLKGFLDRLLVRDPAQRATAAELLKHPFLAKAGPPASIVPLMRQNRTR
Sequence of NUAK1 (human) (O60285 whole entry, looked up): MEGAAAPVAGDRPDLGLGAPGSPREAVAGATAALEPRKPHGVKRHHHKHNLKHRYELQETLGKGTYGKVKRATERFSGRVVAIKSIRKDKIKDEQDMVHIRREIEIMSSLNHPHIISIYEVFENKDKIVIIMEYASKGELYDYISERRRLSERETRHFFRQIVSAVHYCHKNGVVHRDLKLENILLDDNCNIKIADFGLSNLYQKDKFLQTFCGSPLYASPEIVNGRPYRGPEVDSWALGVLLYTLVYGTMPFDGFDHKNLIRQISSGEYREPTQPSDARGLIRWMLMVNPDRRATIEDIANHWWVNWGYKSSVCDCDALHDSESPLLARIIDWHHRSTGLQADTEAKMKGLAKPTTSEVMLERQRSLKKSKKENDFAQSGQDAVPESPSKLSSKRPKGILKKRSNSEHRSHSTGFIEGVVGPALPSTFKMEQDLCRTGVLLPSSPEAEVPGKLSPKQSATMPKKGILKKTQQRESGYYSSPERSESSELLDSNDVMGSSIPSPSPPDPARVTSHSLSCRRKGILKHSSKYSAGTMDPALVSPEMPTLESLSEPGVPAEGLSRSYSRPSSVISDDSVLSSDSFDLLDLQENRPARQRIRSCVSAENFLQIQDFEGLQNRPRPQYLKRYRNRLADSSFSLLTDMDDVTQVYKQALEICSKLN

Compound `Cc1ccc(-c2ccc3c(ccc4sc5c(c43)NC[C@@H](C)NC5=O)n2)cn1` has a residual activity ([1]; compound 0.1 µM) of 109%, a residual activity ([1]; compound 1.0 µM) of 97% and a residual activity ([1]; compound 10.0 µM) of 98%. The residual activity ([2]; compound 1.0 µM) was 102%, the residual activity ([2]; compound 10.0 µM) was 84% and the residual activity ([3]; compound 0.1 µM) was 77%. It also gave a residual activity ([3]; compound 1.0 µM) of 32%, a residual activity ([3]; compound 10.0 µM) of 8% and a residual activity ([4]; compound 0.1 µM) of 112%. For the same compound, the residual activity ([4]; compound 1.0 µM) was 51%, the residual activity ([4]; compound 10.0 µM) was 9% and the residual activity ([5]; compound 0.1 µM) was 96%. For the same compound, the residual activity ([5]; compound 1.0 µM) was 97%, the residual activity ([5]; compound 10.0 µM) was 68% and the residual activity ([6]; compound 0.1 µM) was 80%. It also gave a residual activity ([6]; compound 1.0 µM) of 31%, a residual activity ([6]; compound 10.0 µM) of 8% and a residual activity ([7]; compound 0.1 µM) of 101%. It also gave a residual activity ([7]; compound 1.0 µM) of 105%, a residual activity ([7]; compound 10.0 µM) of 52% and a residual activity ([8]; compound 0.1 µM) of 99%. The residual activity ([8]; compound 1.0 µM) was 110%, the residual activity ([8]; compound 10.0 µM) was 111% and the residual activity ([9]; compound 0.1 µM) was 98%. For the same compound, the residual activity ([9]; compound 1.0 µM) was 88%, the residual activity ([9]; compound 10.0 µM) was 85% and the residual activity ([10]; compound 0.1 µM) was 92%. The residual activity ([10]; compound 1.0 µM) was 105%, the residual activity ([10]; compound 10.0 µM) was 99% and the residual activity ([11]; compound 1.0 µM) was 113%. The residual activity ([11]; compound 10.0 µM) was 78%, the residual activity ([12]; compound 0.1 µM) was 98% and the residual activity ([12]; compound 1.0 µM) was 95%. The residual activity ([12]; compound 10.0 µM) was 44%, the residual activity ([13]; compound 0.1 µM) was 95% and the residual activity ([13]; compound 10.0 µM) was 91%. For the same compound, the residual activity ([14]; compound 0.1 µM) was 114%, the residual activity ([14]; compound 1.0 µM) was 102% and the residual activity ([14]; compound 10.0 µM) was 73%. The residual activity ([15]; compound 0.1 µM) was 102%, the residual activity ([15]; compound 10.0 µM) was 81% and the residual activity ([16]; compound 0.1 µM) was 120%. For the same compound, the residual activity ([16]; compound 1.0 µM) was 104%, the residual activity ([16]; compound 10.0 µM) was 102% and the residual activity ([17]; compound 0.1 µM) was 108%. It also gave a residual activity ([17]; compound 1.0 µM) of 115%, a residual activity ([17]; compound 10.0 µM) of 97% and a residual activity ([18]; compound 0.1 µM) of 108%. It also gave a residual activity ([18]; compound 1.0 µM) of 103%, a residual activity ([18]; compound 10.0 µM) of 94% and a residual activity ([19]; compound 0.1 µM) of 111%. The residual activity ([19]; compound 1.0 µM) was 108%, the residual activity ([20]; compound 0.1 µM) was 96% and the residual activity ([20]; compound 1.0 µM) was 93%. The residual activity ([20]; compound 10.0 µM) was 92%, the residual activity ([21]; compound 0.1 µM) was 114% and the residual activity ([21]; compound 1.0 µM) was 62%. It also gave a residual activity ([21]; compound 10.0 µM) of 30%, a residual activity ([22]; compound 0.1 µM) of 116% and a residual activity ([22]; compound 1.0 µM) of 113%. For the same compound, the residual activity ([22]; compound 10.0 µM) was 95%, the residual activity ([23]; compound 0.1 µM) was 105% and the residual activity ([23]; compound 1.0 µM) was 103%. The residual activity ([23]; compound 10.0 µM) was 83%, the residual activity ([24]; compound 1.0 µM) was 101% and the residual activity ([24]; compound 10.0 µM) was 91%. It also gave a residual activity ([25]; compound 0.1 µM) of 108%, a residual activity ([25]; compound 1.0 µM) of 99% and a residual activity ([25]; compound 10.0 µM) of 88%. It also gave a residual activity ([26]; compound 1.0 µM) of 102%, a residual activity ([26]; compound 10.0 µM) of 58% and a residual activity ([27]; compound 0.1 µM) of 103%. For the same compound, the residual activity ([27]; compound 1.0 µM) was 88%, the residual activity ([27]; compound 10.0 µM) was 82% and the residual activity ([28]; compound 0.1 µM) was 108%. For the same compound, the residual activity ([28]; compound 1.0 µM) was 101%, the residual activity ([28]; compound 10.0 µM) was 101% and the residual activity ([29]; compound 0.1 µM) was 102%. It also gave a residual activity ([29]; compound 1.0 µM) of 114%, a residual activity ([29]; compound 10.0 µM) of 98% and a residual activity ([30]; compound 0.1 µM) of 93%. For the same compound, the residual activity ([30]; compound 1.0 µM) was 38%, the residual activity ([30]; compound 10.0 µM) was 9% and the residual activity ([31]; compound 0.1 µM) was 109%. The residual activity ([31]; compound 1.0 µM) was 119%, the residual activity ([31]; compound 10.0 µM) was 108% and the residual activity ([32]; compound 0.1 µM) was 101%. The residual activity ([32]; compound 10.0 µM) was 90%, the residual activity ([33]; compound 0.1 µM) was 106% and the residual activity ([33]; compound 1.0 µM) was 100%. It also gave a residual activity ([33]; compound 10.0 µM) of 76%, a residual activity ([34]; compound 0.1 µM) of 116% and a residual activity ([34]; compound 1.0 µM) of 112%. It also gave a residual activity ([34]; compound 10.0 µM) of 112%, a residual activity ([35]; compound 0.1 µM) of 94% and a residual activity ([35]; compound 10.0 µM) of 82%.

In the case of `NS(=O)(=O)OC[C@@H]1C[C@@H](n2ccc3c(N[C@H]4CCc5ccccc54)ncnc32)C[C@@H]1O`, the residual activity ([1]; compound 1.0 µM) is reported as 118%, the residual activity ([1]; compound 10.0 µM) is reported as 119% and the residual activity ([2]; compound 1.0 µM) is reported as 103%. It also gave a residual activity ([2]; compound 10.0 µM) of 97%, a residual activity ([3]; compound 1.0 µM) of 92% and a residual activity ([3]; compound 10.0 µM) of 86%. For the same compound, the residual activity ([4]; compound 10.0 µM) was 67%, the residual activity ([5]; compound 1.0 µM) was 114% and the residual activity ([5]; compound 10.0 µM) was 110%. For the same compound, the residual activity ([6]; compound 1.0 µM) was 96%, the residual activity ([6]; compound 10.0 µM) was 103% and the residual activity ([7]; compound 1.0 µM) was 93%. The residual activity ([7]; compound 10.0 µM) was 92%, the residual activity ([8]; compound 1.0 µM) was 107% and the residual activity ([8]; compound 10.0 µM) was 109%. For the same compound, the residual activity ([9]; compound 10.0 µM) was 129%, the residual activity ([10]; compound 1.0 µM) was 110% and the residual activity ([10]; compound 10.0 µM) was 116%. For the same compound, the residual activity ([11]; compound 1.0 µM) was 88%, the residual activity ([11]; compound 10.0 µM) was 97% and the residual activity ([12]; compound 1.0 µM) was 73%. For the same compound, the residual activity ([12]; compound 10.0 µM) was 78%, the residual activity ([13]; compound 1.0 µM) was 95% and the residual activity ([13]; compound 10.0 µM) was 94%. It also gave a residual activity ([14]; compound 1.0 µM) of 92%, a residual activity ([14]; compound 10.0 µM) of 92% and a residual activity ([15]; compound 10.0 µM) of 89%. For the same compound, the residual activity ([16]; compound 1.0 µM) was 81%, the residual activity ([16]; compound 10.0 µM) was 82% and the residual activity ([17]; compound 1.0 µM) was 101%. For the same compound, the residual activity ([17]; compound 10.0 µM) was 95%, the residual activity ([18]; compound 1.0 µM) was 92% and the residual activity ([18]; compound 10.0 µM) was 90%. For the same compound, the residual activity ([19]; compound 1.0 µM) was 77%, the residual activity ([19]; compound 10.0 µM) was 73% and the residual activity ([20]; compound 1.0 µM) was 84%. It also gave a residual activity ([20]; compound 10.0 µM) of 97%, a residual activity ([21]; compound 1.0 µM) of 103% and a residual activity ([21]; compound 10.0 µM) of 101%. It also gave a residual activity ([22]; compound 1.0 µM) of 90%, a residual activity ([22]; compound 10.0 µM) of 88% and a residual activity ([23]; compound 1.0 µM) of 104%. The residual activity ([23]; compound 10.0 µM) was 92%, the residual activity ([24]; compound 1.0 µM) was 83% and the residual activity ([24]; compound 10.0 µM) was 88%. For the same compound, the residual activity ([25]; compound 1.0 µM) was 109%, the residual activity ([25]; compound 10.0 µM) was 100% and the residual activity ([26]; compound 1.0 µM) was 98%. The residual activity ([26]; compound 10.0 µM) was 96%, the residual activity ([27]; compound 1.0 µM) was 101% and the residual activity ([27]; compound 10.0 µM) was 106%. The residual activity ([28]; compound 10.0 µM) was 89%, the residual activity ([29]; compound 1.0 µM) was 93% and the residual activity ([29]; compound 10.0 µM) was 95%. It also gave a residual activity ([30]; compound 1.0 µM) of 96%, a residual activity ([30]; compound 10.0 µM) of 99% and a residual activity ([31]; compound 1.0 µM) of 73%. For the same compound, the residual activity ([31]; compound 10.0 µM) was 81%, the residual activity ([32]; compound 10.0 µM) was 88% and the residual activity ([33]; compound 1.0 µM) was 96%. The residual activity ([33]; compound 10.0 µM) was 95%, the residual activity ([34]; compound 1.0 µM) was 95% and the residual activity ([34]; compound 10.0 µM) was 112%. For the same compound, the residual activity ([35]; compound 1.0 µM) was 92% and the residual activity ([35]; compound 10.0 µM) was 104%.
